{"source": "patent US20200253979A1", "about": "“THERAPEUTIC METHODS RELATING TO HSP90 INHIBITORS” (AI Therapeutics, Inc., priority 2017, published 2020)", "key": {"[1]": {"test_system": "T-cell populations within MC38 tumors", "test": "Effector/regulatory T-cell ratio in MC38 tumors", "assay_type": "in vivo, mouse", "conditions": "150 mg/kg QD×7", "protocol": "To test if MPC-0767 may induce an anti-tumor immune response in addition to direct cytotoxic activity, down regulation of PD-Ll and the effector/regulatory T-cell ratio was measured in the same MC38 syngeneic model. On day 21, when the average tumor volume was 372 mm^3 in size, a second group of mice (n=6) was treated with 150 mg/kg MPC-0767 QD×7. One day post the last dose (day 28 post inoculation) tumors were harvested from the vehicle and 150 mg/kg MPC-0767 QD×7 group. Tumor infiltrating leukocytes (CD45^+, CD3^−) within the dissociated tumors were analyzed for PD-L1 expression by flow cytometry."}, "[2]": {"test_system": "MOLM-13 FLT3-ITD AML cell line", "test": "Systemic survival xenograft study, MPC-0767 with 5′azacitidine", "conditions": "single agents: MPC-0767 75 mg/kg p.o.; 5′azacitidine 2 mg/kg QD×4 i.p.; vs vehicle"}, "MV-4-11 cells (FLT3-ITD)": {"test_system": "MV-4-11 cells (FLT3-ITD)", "test": "CellTiter-Glo cell viability (single agent and combination)", "assay_type": "cell-based", "conditions": "MV-4-11, MPC-0767 1 μM, 72 hours", "protocol": "Three cell lines which harbor FLT3-ITD were used for the drug combination studies (MV-4-11, MOLM-13, and MOLM-14).\nCells were treated with the drugs (single agent or combination) for 72 hours. Drug combination activity was determined by first measuring cell viability with CellTiter-Glo®, followed by the calculation of the EC50 corresponding to single agent activity, using the R DRC package (R Core Team, 2017). The combination index (CI) values were computed using the Chou-Talalay method (Chou T, Cancer Research., 2010 70(2): 440-6.), based on the viability of each drug alone and in combination, across all concentrations tested. In brief, CI was defined as: […]\nLoss of function mutations of KDM6A are observed in FLT3-ITD AML (Garg et al., 2015 Blood 126 (22):2491-501). […] To therapeutically exploit this finding, we hypothesized that inhibiting EZH2, the histone H3K27 methyltransferase that functionally opposes KDM6A, would enhance sensitivity to MPC-0767. To test this hypothesis, a FLT3-ITD cell line (MV-4-11) was used and treated with either of the two clinical stage EZH2 inhibitors, EPZ-6438 and CPI-1205, at 8 different concentrations for 4 days. Following this time, cells were counted, reseeded and treated with 8 concentrations of EZH2 inhibitor alone, 8 concentrations of MPC-0767 alone, or the combination of the two (64 total combinations)."}, "ML2 cells": {"test_system": "ML2 cells", "test": "CellTiter-Glo cell viability (single agent and combination)"}, "[3]": {"test_system": "MOLM-13 FLT3-ITD AML cell line", "test": "Systemic survival xenograft study, MPC-0767 single agent", "conditions": "vs vehicle"}, "TUR cells": {"test_system": "TUR cells", "test": "CellTiter-Glo cell viability (single agent and combination)", "assay_type": "cell-based", "conditions": "72 h"}, "[4]": {"test_system": "BaF3 cells harboring FLT3-ITD F691L", "test": "CellTiter-Glo cell viability", "assay_type": "cell-based, murine", "conditions": "Mus musculus; BaF3 FLT3-ITD-F691L, 72 hours", "protocol": "EC50 values were calculated using equation 1 (as described above)."}, "H1975 cells": {"test_system": "H1975 cells", "test": "7-AAD / annexin V cell death staining", "assay_type": "cell-based", "conditions": "0.7 μM, 72 hours", "protocol": "To verify the mechanism of the loss of cell viability, H1975 cells were treated with MPC-0767 (0.7 μM) for 72 hours. After this time, cells were stained with 7-amino-actinomycin D (7-AAD) and annexin V, markers of cell membrane integrity and of apoptosis, respectively."}, "[5]": {"test_system": "OCIAML2 (OCI-AML-2) cells", "test": "CellTiter-Glo cell viability (single agent and combination)"}, "FLT3 WT AML cells": {"test_system": "FLT3 WT AML cells", "test": "CellTiter-Glo viability of AML cell lines and primary AML samples", "assay_type": "cell-based", "conditions": "FLT3 WT cells (n=11), 72 hours; read-out: geometric mean EC50 (cell viability)", "protocol": "(§1) Exponentially growing cell lines were counted and seeded into 96-well clear, flat-bottomed polystyrene microtiter plates in a final volume of 90 μL per well. For primary AML samples, cells were seeded into 384 well plates at a density of 2×10^4 cells in a final volume of 27 μL per well. To treat cell lines or primary samples 10 μL or 3 μL, respectively, of 10× concentrations of MPC-0767, were then added to the cells to give a final concentration of 10000 nM, 5000 nM, 2500 nM, 1250 nM, 625 nM, 313 nM, 156 nM, 78 nM, 39 and 20 nM. […] Cells were seeded and treated in duplicate. After incubation for three days, cell viability was determined by measuring intracellular ATP levels using the CellTiter-Glo® assay system by adding to each well either 100 μL for 96 well plates, or 30 μL for 384 well plates. Luminescence was detected using a plate reader.\n(§2) The effect of drugs on cell viability was calculated by comparing the ATP levels (luminescence counts per second) of cells exposed to test compound with those of cells exposed to vehicle (DMSO) alone. The half-maximal effective concentration (EC50) for each cell line was determined using the R DRC package (R Core Team, 2017). In brief, the dose-response curves were fitted with a four-parameter logistic regression model (LL.4) according to (Eq-1) and the absolute EC50 was estimated using a confidence interval of 0.95."}, "FLT3-ITD AML cells": {"test_system": "FLT3-ITD AML cells", "test": "CellTiter-Glo viability of AML cell lines and primary AML samples", "assay_type": "cell-based", "conditions": "FLT3-ITD cells (n=8), 72 hours; read-out: geometric mean EC50 (cell viability)", "protocol": "as §1, §2"}, "[6]": {"test_system": "NSCLC cell lines HCC-827, H1975, PC-9 and H1781", "test": "CellTiter-Glo cell viability in NSCLC cell lines", "assay_type": "cell-based", "conditions": "98-50000 nM, 3 days; HCC-827, H1975, PC-9, H1781", "protocol": "The NSCLC cell lines HCC-827 (EGFR L858R), H1975 (EGFR L858R/T790M) PC-9 (EGFR Del E746_A750) and H1781 (HER2 G7776insV G/C) were treated with MPC-0767 at a concentration range of 98-50000 nM for 3 days, after which time cell viability was determined using CellTiter-Glo® reagent."}, "ME1 (ME-1) cells": {"test_system": "ME1 (ME-1) cells", "test": "CellTiter-Glo cell viability (single agent and combination)", "assay_type": "cell-based", "conditions": "ME1, 72 h"}}, "data": [{"smiles": "C[C@H](N)C(=O)O[C@@H](C)C(=O)N1CCC(CCn2c(Sc3cc4c(cc3Br)OCO4)nc3c(N)ncnc32)CC1", "note": "[MPC-0767]", "values": [{"measurement": "CD4:TREG ratio", "setting": "[1]", "result": "significant increase"}, {"measurement": "CD8:TREG ratio", "setting": "[1]", "result": "significant increase"}, {"measurement": "increase in median survival", "setting": "[2]", "result": 5.5, "unit": "days"}, {"measurement": "viability of KDM6A sgRNA cells vs non-targeting sgRNA", "setting": "MV-4-11 cells (FLT3-ITD)", "result": "conferred resistance to MPC-0767"}, {"measurement": "EC50", "setting": "ML2 cells; Homo sapiens, ML-2, 72 h", "result": 1030, "unit": "nM"}, {"measurement": "MPC-0767 Sensitivity", "setting": "ML2 cells; ML2, 72 h", "result": "Resistant (EC50 values above 1 μM considered resistant)"}, {"measurement": "increase in median survival", "setting": "[3]; 75 mg/kg once a day", "result": 1.5, "unit": "days"}, {"measurement": "increase in median survival", "setting": "[3]; 150 mg/kg once a day", "result": 10, "unit": "days"}, {"measurement": "EC50", "setting": "TUR cells", "result": 550, "unit": "nM"}, {"measurement": "MPC-0767 Sensitivity", "setting": "TUR cells", "result": "Sensitive (cell lines having EC50 values below 1 μM were considered to be sensitive)"}, {"measurement": "EC50", "setting": "[4]", "result": 391, "unit": "nM"}, {"measurement": "percentage of cells displaying markers of cell death", "setting": "H1975 cells", "result": "increase"}, {"measurement": "percentage of viable cells (7-AAD negative and annexin V negative)", "setting": "H1975 cells", "result": "decrease"}, {"measurement": "EC50", "setting": "[5]; Homo sapiens, OCI-AML2, 72 h", "result": 633, "unit": "nM"}, {"measurement": "MPC-0767 Sensitivity", "setting": "[5]; OCIAML2, 72 h", "result": "Sensitive (cell lines having EC50 values below 1 μM were considered to be sensitive)"}, {"measurement": "EC50", "setting": "FLT3 WT AML cells", "result": 1520, "unit": "nM"}, {"measurement": "EC50", "setting": "FLT3-ITD AML cells", "result": 576, "unit": "nM"}, {"measurement": "EC50 (cell viability)", "setting": "[6]", "result": "within clinically achievable concentrations"}, {"measurement": "MPC-0767 Sensitivity", "setting": "ME1 (ME-1) cells", "result": "Resistant (EC50 values above 1 μM considered resistant)"}, {"measurement": "EC50", "setting": "ME1 (ME-1) cells; ME-1", "result": 3.43, "unit": "µM"}]}]}
